# Source: patent US10952992B2, “Methods of treating intraocular pressure with activators of Tie-2” (Aerpio Pharmaceuticals, Inc., priority 2015, dated 2021)
# Values joined by “and” are separate entries in the source; they are usually repeats but may differ in a detail not shown here. Identical values can stand only once.
# Experiment: Example 2 iris, retina, choroid and cornea tissue concentrations
# Assay type: in vivo, male New Zealand White rabbits
# Conditions: for Choroid Conc. OS / Choroid Conc. OD: choroid homogenate; for Choroid Conc. OS / Choroid tissue Conc. OS / Cornea Conc. OS / Cornea tissue Conc. OS / Iris Conc. OS / Iris tissue Conc. OS / Retina Conc. OS / Retina tissue Conc. OS: left eye; for Choroid Conc. OS / Choroid Conc. OD / Choroid tissue Conc. OS / Choroid tissue Conc. OD / Cornea Conc. OS / Cornea Conc. OD / Cornea tissue Conc. OS / Cornea tissue Conc. OD / Iris Conc. OS / Iris Conc. OD / Iris tissue Conc. OS / Iris tissue Conc. OD / Retina Conc. OS / Retina Conc. OD / Retina tissue Conc. OS / Retina tissue Conc. OD: individual animals; for Choroid Conc. OS / Choroid Conc. OD / Choroid tissue Conc. Avg. / Choroid tissue Conc. OS / Choroid tissue Conc. OD / Cornea Conc. OS / Cornea Conc. OD / Cornea tissue Conc. Avg. / Cornea tissue Conc. OS / Cornea tissue Conc. OD / Iris Conc. OS / Iris Conc. OD / Iris tissue Conc. Avg. / Iris tissue Conc. OS / Iris tissue Conc. OD / Retina Conc. OS / Retina Conc. OD / Retina tissue Conc. Avg. / Retina tissue Conc. OS / Retina tissue Conc. OD: intravitreal 2.5 mg/eye (~1.54 mg/kg), group 5; for Choroid Conc. OD / Choroid tissue Conc. OD / Cornea Conc. OD / Cornea tissue Conc. OD / Iris Conc. OD / Iris tissue Conc. OD / Retina Conc. OD / Retina tissue Conc. OD: right eye; for Choroid tissue Conc. Avg. / Cornea tissue Conc. Avg. / Iris tissue Conc. Avg. / Retina tissue Conc. Avg.: average; for Cornea Conc. OS / Cornea Conc. OD: cornea homogenate; for Iris Conc. OS / Iris Conc. OD: iris homogenate; for Retina Conc. OS / Retina Conc. OD: retina homogenate
# Experimental: To measure the concentration of Compound 1 in plasma and ocular tissues following topical ocular, subcutaneous, and intravitreal administration, New Zealand White rabbits were administered Compound 1, and plasma and ocular samples were collected at pre-determined time points. Compound 1 formulations were prepared fresh on each day of dosing.
# Ocular tissue samples from both eyes of each animal were collected and weights were recorded. Plasma and ocular tissue sample concentrations of Compound 1 were determined by LC-MS/MS.
# Animals were anesthetized for ocular (topical) and intravitreal dosing following the 12IA7 IACUC protocol. Each rabbit received a bolus dose of test formulation either via topical ocular administration 3 times daily on Days 1 and 2 (at 0, 6, and 12 hours), and once on Day 3 (at 0 hours) into both eyes; via intravitreal administration into both eyes once on Day 1 (at 0 hours); or via subcutaneous administration 2 times daily on Days 1 and 2 (at 0 and 8 hours) and once daily on Day 3 (at 0 hours). Doses were given within an approximately 1 hour window each day where applicable.
# On Day 1, for intravitreal administration, or on Day 3, for topical ocular and subcutaneous administration, at the appropriate ocular tissue collection time points, animals were euthanized and both eyes were enucleated immediately. Following enucleation, each eye was rinsed with phosphate-buffered saline. Ocular tissue samples from both eyes of each animal were collected at predetermined time points and weights were recorded. All the samples were frozen immediately on dry ice, and stored at −60° C. to −80° C. pending bioanalysis.
# An LC-MS/MS method was developed for the determination of Compound 1 in rabbit aqueous tissues (plasma, aqueous and vitreous humor) and solid ocular tissue samples. A pre-study standard curve was analyzed to determine the specificity, range, and lower limit of quantitation of the method. Plasma and tissue homogenate study samples were extracted and analyzed. All the samples were treated identically to the standards.
# One eight-point standard curve was used in each analytical batch. To be accepted, each batch must have had at least five of eight standards with accuracy within ±20% of nominal, except at the lower limit of quantification (LLOQ), where ±25% was acceptable.
smiles,measurement,setting,value
COC(=O)N[C@@H](Cc1ccccc1)C(=O)N[C@@H](Cc1ccc(NS(=O)(=O)O)cc1)c1csc(-c2cccs2)n1 [Compound 1 free acid],Choroid Conc. OS,24 hr,28400 ng/mL and 43500 ng/mL
same,Choroid Conc. OD,24 hr,15200 ng/mL and 57500 ng/mL
same,Choroid Conc. OS,48 hr,9320 ng/mL and 14800 ng/mL
same,Choroid Conc. OD,48 hr,9940 ng/mL and 9580 ng/mL
same,Choroid Conc. OS,72 hr,2660 ng/mL and 2910 ng/mL
same,Choroid Conc. OD,72 hr,2180 ng/mL and 2270 ng/mL
same,Choroid tissue Conc. Avg.,6.0 hr,663575 ng/g
same,Choroid tissue Conc. OS,6.0 hr,697400 ng/g and 766700 ng/g
same,Choroid tissue Conc. OD,6.0 hr,360800 ng/g and 829400 ng/g
same,Choroid tissue Conc. Avg.,24 hr,397650 ng/g
same,Choroid tissue Conc. OS,24 hr,312400 ng/g and 478500 ng/g
same,Choroid tissue Conc. OD,24 hr,167200 ng/g and 632500 ng/g
same,Choroid tissue Conc. Avg.,48 hr,120010 ng/g
same,Choroid tissue Conc. OS,48 hr,102520 ng/g
same,Choroid tissue Conc. OD,48 hr,109340 ng/g and 105380 ng/g
same,Choroid tissue Conc. Avg.,72 hr,27555 ng/g
same,Choroid tissue Conc. OS,72 hr,29260 ng/g and 32010 ng/g
same,Choroid tissue Conc. OD,72 hr,23980 ng/g and 24970 ng/g
same,Cornea Conc. OS,6.0 hr,3140 ng/mL and 1180 ng/mL
same,Cornea Conc. OD,6.0 hr,7910 ng/mL and 7610 ng/mL
same,Cornea Conc. OS,24 hr,1190 ng/mL and 1050 ng/mL
same,Cornea Conc. OD,24 hr,1520 ng/mL and 2520 ng/mL
same,Cornea Conc. OS,48 hr,293 ng/mL and 571 ng/mL
same,Cornea Conc. OD,48 hr,437 ng/mL and 384 ng/mL
same,Cornea Conc. OS,72 hr,117 ng/mL and 45.3 ng/mL
same,Cornea Conc. OD,72 hr,37.7 ng/mL and 77.2 ng/mL
same,Cornea tissue Conc. Avg.,6.0 hr,54560 ng/g
same,Cornea tissue Conc. OS,6.0 hr,34540 ng/g and 12980 ng/g
same,Cornea tissue Conc. OD,6.0 hr,87010 ng/g and 83710 ng/g
same,Cornea tissue Conc. Avg.,24 hr,17270 ng/g
same,Cornea tissue Conc. OS,24 hr,13090 ng/g and 11550 ng/g
same,Cornea tissue Conc. OD,24 hr,16720 ng/g and 27720 ng/g
same,Cornea tissue Conc. Avg.,48 hr,4634 ng/g
same,Cornea tissue Conc. OS,48 hr,3223 ng/g and 6281 ng/g
same,Cornea tissue Conc. OD,48 hr,4807 ng/g and 4224 ng/g
same,Cornea tissue Conc. Avg.,72 hr,762 ng/g
same,Cornea tissue Conc. OS,72 hr,1287 ng/g and 498 ng/g
same,Cornea tissue Conc. OD,72 hr,415 ng/g and 849 ng/g
same,"distribution among iris, retina, choroid, cornea (FIG. 16)","intravitreal 1.54 mg/kg, free acid",generally higher in the retina and choroid
same,"ocular tissue concentrations at 72 hours, free acid suspension relative to sodium salt solution",intravitreal administration,higher concentrations
same,Iris Conc. OS,6.0 hr,13800 ng/mL and 12200 ng/mL
same,Iris Conc. OD,6.0 hr,18500 ng/mL and 32100 ng/mL
same,Iris Conc. OS,24 hr,14100 ng/mL and 8200 ng/mL
same,Iris Conc. OD,24 hr,7670 ng/mL and 11000 ng/mL
same,Iris Conc. OS,48 hr,1950 ng/mL and 2030 ng/mL
same,Iris Conc. OD,48 hr,1010 ng/mL and 1110 ng/mL
same,Iris Conc. OS,72 hr,1800 ng/mL and 1320 ng/mL
same,Iris Conc. OD,72 hr,279 ng/mL and 351 ng/mL
same,Iris tissue Conc. Avg.,6.0 hr,210650 ng/g
same,Iris tissue Conc. OS,6.0 hr,151800 ng/g and 134200 ng/g
same,Iris tissue Conc. OD,6.0 hr,203500 ng/g and 353100 ng/g
same,Iris tissue Conc. Avg.,24 hr,112668 ng/g
same,Iris tissue Conc. OS,24 hr,155100 ng/g and 90200 ng/g
same,Iris tissue Conc. OD,24 hr,84370 ng/g and 121000 ng/g
same,Iris tissue Conc. Avg.,48 hr,16775 ng/g
same,Iris tissue Conc. OS,48 hr,21450 ng/g and 22330 ng/g
same,Iris tissue Conc. OD,48 hr,11110 ng/g and 12210 ng/g
same,Iris tissue Conc. Avg.,72 hr,10313 ng/g
same,Iris tissue Conc. OS,72 hr,19800 ng/g and 14520 ng/g
same,Iris tissue Conc. OD,72 hr,3069 ng/g and 3861 ng/g
same,Retina Conc. OS,6.0 hr,154000 ng/mL and 120000 ng/mL
same,Retina Conc. OD,6.0 hr,146000 ng/mL and 303000 ng/mL
same,Retina Conc. OS,24 hr,98900 ng/mL and 198000 ng/mL
same,Retina Conc. OD,24 hr,130000 ng/mL and 145000 ng/mL
same,Retina Conc. OS,48 hr,14000 ng/mL and 101000 ng/mL
same,Retina Conc. OD,48 hr,66700 ng/mL and 65500 ng/mL
same,Retina Conc. OS,72 hr,10800 ng/mL and 12900 ng/mL
same,Retina Conc. OD,72 hr,9890 ng/mL and 6070 ng/mL
same,Retina tissue Conc. Avg.,6.0 hr,1988250 ng/g
same,Retina tissue Conc. OS,6.0 hr,1694000 ng/g and 1320000 ng/g
same,Retina tissue Conc. OD,6.0 hr,1606000 ng/g
same,Retina tissue Conc. Avg.,24 hr,1572725 ng/g
same,Retina tissue Conc. OS,24 hr,1087900 ng/g and 2178000 ng/g
same,Retina tissue Conc. OD,24 hr,1430000 ng/g and 1595000 ng/g
same,Retina tissue Conc. Avg.,48 hr,679800 ng/g
same,Retina tissue Conc. OS,48 hr,154000 ng/g and 1111000 ng/g
same,Retina tissue Conc. OD,48 hr,733700 ng/g and 720500 ng/g
same,Retina tissue Conc. Avg.,72 hr,109065 ng/g
same,Retina tissue Conc. OS,72 hr,118800 ng/g and 141900 ng/g
same,Retina tissue Conc. OD,72 hr,108790 ng/g and 66770 ng/g
same,"distribution among iris, retina, choroid, cornea (FIG. 14)","subcutaneous 5 mg/kg/dose, free acid",generally higher in the iris and choroid
